Source: US8975406B2, “Compound useful for the treatment of degenerative and inflammatory diseases” (Galapagos N.V., priority 2011, dated 2015)

Assays:
Assay type in all cases: biochemical
[1] = target: T1, Recombinant human JAK1 (Homo sapiens, UniProt P23458); experiment: JAK1 Ulight-JAK1 peptide assay; settings: Ulight-JAK1(tyr1023) peptide, 7 μM ATP
T1 construct: catalytic domain (amino acids 866-1154; catalog number PV4774); purchased Invitrogen PV4774
Description: Recombinant human JAK1 (catalytic domain, amino acids 866-1154; catalog number PV4774) was purchased from Invitrogen. 1 ng of JAK1 was incubated with 20 nM Ulight-JAK1(tyr1023) peptide (Perkin Elmer catalog number TRF0121) in kinase reaction buffer (25 mM MOPS pH6.8, 0.01% Brij-35, 5 mM MgCl2, 2 mM DTT, 7 μM ATP) with or without 4 μL containing test compound or vehicle (DMSO, 1% final concentration), in a total volume of 20 μL, in a white 384 Opti plate (Perkin Elmer, catalog number 6007290). After 60 min at room temperature, reactions were stopped by adding 20 μL/well of detection mixture (1× detection buffer (Perkin Elmer, catalog number CR97-100C), 0.5 nM Europium-anti-phosphotyrosine (PT66) (Perkin Elmer, catalog number AD0068), 10 mM EDTA). Readout is performed using the Envision with excitation at 320 nm and measuring emission at 615 nm (Perkin Elmer). Kinase activity was calculated by subtracting relative fluorescence units (RFU) obtained in the presence of a positive control inhibitor (10 μM staurosporine) from RFU obtained in the presence of vehicle. The ability of a test compound to inhibit this activity was determined as: Percentage inhibition=((RFU determined for sample with test compound present−RFU determined for sample with positive control inhibitor)divided by(RFU determined in the presence of vehicle−RFU determined for sample with positive control inhibitor))*100.
(§1) Dose dilution series were prepared for the compounds enabling the testing of dose-response effects in the JAK1 assay and the calculation of the IC50 for the compound. Each compound is routinely tested at concentration of 20 μM followed by a ⅕ serial dilution, 10 points in a final concentration of 1% DMSO. When potency of compound series increases, more dilutions are prepared and/or the top concentration are lowered (e.g. 5 μM, 1 μM). The data are expressed as the average IC50 from the assays±standard error of the mean.

[2] = target: T2, Recombinant human JAK2 (Homo sapiens, UniProt O60674); experiment: JAK2 Ulight-JAK1 peptide assay; settings: Ulight-JAK1(tyr1023) peptide, 7.5 μM ATP
T2 construct: catalytic domain (amino acids 808-1132; catalog number PV4210); GST; purchased Invitrogen PV4210
T2 sequence (O60674 808-1132): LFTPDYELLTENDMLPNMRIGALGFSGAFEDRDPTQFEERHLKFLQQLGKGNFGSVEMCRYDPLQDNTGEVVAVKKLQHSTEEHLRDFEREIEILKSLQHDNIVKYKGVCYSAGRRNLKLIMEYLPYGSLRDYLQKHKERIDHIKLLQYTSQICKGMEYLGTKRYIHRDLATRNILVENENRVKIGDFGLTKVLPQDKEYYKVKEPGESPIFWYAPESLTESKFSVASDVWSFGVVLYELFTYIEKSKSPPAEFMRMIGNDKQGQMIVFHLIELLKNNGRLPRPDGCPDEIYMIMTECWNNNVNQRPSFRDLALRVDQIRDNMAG
Description: Recombinant human JAK2 (catalytic domain, amino acids […]; catalog number PV4210) was purchased from Invitrogen. 0.0125 mU of JAK2 was incubated with 25 nM Ulight-JAK1(tyr1023) peptide (Perkin Elmer catalog number TRF0121) in kinase reaction buffer (25 mM HEPES pH7.0, 0.01% Triton X-100, 7.5 mM MgCl2, 2 mM DTT, 7.5 μM ATP) with or without 4 μL containing test compound or vehicle (DMSO, 1% final concentration), in a total volume of 20 μL, in a white 384 Opti plate (Perkin Elmer, catalog number 6007290). After 60 min at room temperature, reactions were stopped by adding 20 μL/well of detection mixture (1× detection buffer (Perkin Elmer, catalog number CR97-100C), 0.5 nM Europium-anti-phosphotyrosine (PT66) (Perkin Elmer, catalog number AD0068), 10 mM EDTA). Readout is performed using the Envision with excitation at 320 nm and measuring emission at 615 nm (Perkin Elmer). Kinase activity was calculated by subtracting relative fluorescence units (RFU) obtained in the presence of a positive control inhibitor (10 μM staurosporine) from RFU obtained in the presence of vehicle. The ability of a test compound to inhibit this activity was determined as: Percentage inhibition=((RFU determined for sample with test compound present−RFU determined for sample with positive control inhibitor)divided by(RFU determined in the presence of vehicle−RFU determined for sample with positive control inhibitor))*100.
as §1, with “each compound” for “the compounds”, “JAK2” for “JAK1”

[3] = target: T3, Recombinant human JAK3 catalytic domain (Homo sapiens, UniProt P52333); experiment: JAK3 inhibition assay; settings: polyGT substrate, 33P-gamma-ATP filter assay, 1 μM ATP
T3 construct: catalytic domain (amino acids 795-1124; catalog number 08-046); purchased Carna Biosciences 08-046
T3 sequence (P52333 795-1124): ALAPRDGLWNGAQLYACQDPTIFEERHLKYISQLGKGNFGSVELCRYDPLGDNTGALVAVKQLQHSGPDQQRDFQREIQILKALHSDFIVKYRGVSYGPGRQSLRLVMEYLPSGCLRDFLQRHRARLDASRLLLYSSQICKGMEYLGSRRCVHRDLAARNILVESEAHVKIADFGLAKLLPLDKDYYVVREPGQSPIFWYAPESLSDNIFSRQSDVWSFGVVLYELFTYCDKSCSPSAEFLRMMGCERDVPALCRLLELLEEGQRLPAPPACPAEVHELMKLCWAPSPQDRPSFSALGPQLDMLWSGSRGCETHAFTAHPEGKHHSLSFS
Description: Recombinant human JAK3 catalytic domain (amino acids 795-1124; catalog number 08-046) was purchased from Carna Biosciences. 0.5 ng JAK3 protein was incubated with 2.5 μg polyGT substrate (Sigma catalog number P0275) in kinase reaction buffer (25 mM Tris pH 7.5, 0.5 mM EGTA, 10 mM MgCl2, 2.5 mM DTT, 0.5 mM Na3VO4, 5 mM b-glycerolphosphate, 0.01% Triton X-100, 1 μM non-radioactive ATP, 0.25 μCi ^33P-gamma-ATP (Perkin Elmer, catalog number NEG602K001MC) final concentrations) with or without 5 μL containing test compound or vehicle (DMSO, 1% final concentration), in a total volume of 25 μL, in a polypropylene 96-well plate (Greiner, V-bottom). After 45 min at 30° C., reactions were stopped by adding 25 μL/well of 150 mM phosphoric acid. All of the terminated kinase reaction was transferred to prewashed (75 mM phosphoric acid) 96 well filter plates (Perkin Elmer catalog number 6005177) using a cell harvester (Perkin Elmer). Plates were washed 6 times with 300 μL per well of a 75 mM phosphoric acid solution and the bottom of the plates was sealed. 40 μL/well of Microscint-20 was added, the top of the plates was sealed and readout was performed using the Topcount (Perkin Elmer). Kinase activity was calculated by subtracting counts per min (cpm) obtained in the presence of a positive control inhibitor (10 μM staurosporine) from cpm obtained in the presence of vehicle. The ability of a test compound to inhibit this activity was determined as: Percentage inhibition=((cpm determined for sample with test compound present−cpm determined for sample with positive control inhibitor)divided by(cpm determined in the presence of vehicle−cpm determined for sample with positive control inhibitor))*100.
Dose dilution series were prepared for the compounds enabling the testing of dose-response effects in the JAK3 assay and the calculation of the IC50 for each compound. Each compound was routinely tested at concentration of 20 μM followed by a ⅕ serial dilution, 10 points in a final concentration of 1% DMSO. When potency of compound series increased, more dilutions were prepared and/or the top concentration was lowered (e.g. 5 μM, 1 μM).

T1 sequence (P23458 866-1154): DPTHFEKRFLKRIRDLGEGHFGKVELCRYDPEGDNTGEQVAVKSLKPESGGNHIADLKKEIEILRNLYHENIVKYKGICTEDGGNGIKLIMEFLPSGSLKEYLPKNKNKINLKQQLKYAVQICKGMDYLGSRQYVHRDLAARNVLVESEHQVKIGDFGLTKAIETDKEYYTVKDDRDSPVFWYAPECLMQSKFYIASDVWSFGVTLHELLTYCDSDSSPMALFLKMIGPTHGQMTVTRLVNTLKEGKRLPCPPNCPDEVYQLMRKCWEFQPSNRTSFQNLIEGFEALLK

Row | SMILES | IC50 [1] | IC50 [2] | IC50 [3]
1 | O=C(Nc1cc2c(-c3ccc4[nH]ccc4c3)cccn2n1)C1CC1 [Compound 4, N-(4-(1H-indol-5-yl)pyrazolo[1,5-a]pyridin-2-yl)cyclopropanecarboxamide] | 101 to 500 nM | 0.01 to 100 nM | 0.01 to 100 nM
2 | O=C(Nc1nn2cccc(-c3ccc(CN4CCS(=O)(=O)CC4)cc3)c2c1Br)C1CC1 [Compound 12, Cyclopropanecarboxylic acid {4-[4-(1,1-dioxo-thiomorpholin-4-ylmethyl)-phenyl]-3-bromo-pyrazolo[1,5-a]pyridin-2-yl}-amide] | 0.01 to 100 nM | 0.01 to 100 nM | 101 to 500 nM
3 | O=C(NCCOc1ccccc1)c1ccc(-c2cccn3nc(NC(=O)C4CC4)cc23)cc1 [Compound 6, 4-(2-(cyclopropanecarboxamido)pyrazolo[1,5-a]pyridin-4-yl)-N-(2-phenoxyethyl)benzamide] | 0.01 to 100 nM | 0.01 to 100 nM | 0.01 to 100 nM
4 | O=C(Nc1nn2cccc(-c3ccc(CN4CCS(=O)(=O)CC4)cc3)c2c1F)C1CC1 [Compound 11, Cyclopropanecarboxylic acid {4-[4-(1,1-dioxo-thiomorpholin-4-ylmethyl)-phenyl]-3-fluoro-pyrazolo[1,5-a]pyridin-2-yl}-amide] | 0.01 to 100 nM | 0.01 to 100 nM | 0.01 to 100 nM
5 | O=C(Nc1cc2c(-c3ccc4c(ccn4Cc4ccccc4)c3)cccn2n1)C1CC1 [Compound 3, N-(4-(1-benzyl-1H-indol-5-yl)pyrazolo[1,5-a]pyridin-2-yl)cyclopropanecarboxamide] | > 1000 nM | 101 to 500 nM | 0.01 to 100 nM
6 | N#Cc1ccc(COc2ccc(-c3cccn4nc(NC(=O)C5CC5)cc34)cc2)cn1 [Compound 9, N-(4-(4-((6-cyanopyridin-3-yl)methoxy)phenyl)pyrazolo[1,5-a]pyridin-2-yl)cyclopropanecarboxamide] | 0.01 to 100 nM | 0.01 to 100 nM | 0.01 to 100 nM
7 | O=C(Nc1cc2c(-c3ccc(C(=O)N4CCCCC4)cc3)cccn2n1)C1CC1 [Compound 14, Cyclopropanecarboxylic acid {4-[4-(piperidine-1-carbonyl)-phenyl]-pyrazolo[1,5-a]pyridin-2-yl}-amide] | 0.01 to 100 nM | 0.01 to 100 nM | 101 to 500 nM

Continued, values first:

Row | IC50 [1] | IC50 [2] | IC50 [3] | SMILES
8 | 0.01 to 100 nM | 0.01 to 100 nM | 0.01 to 100 nM | O=C(Nc1cc2c(-c3ccc(CN4CCS(=O)(=O)CC4)cc3)cccn2n1)C1CC1 [Compound 10, Cyclopropanecarboxylic acid {4-[4-(1,1-dioxo-thiomorpholin-4-ylmethyl)-phenyl]-pyrazolo[1,5-a]pyridin-2-yl}-amide]
9 | 0.01 to 100 nM | > 1000 nM | 0.01 to 100 nM | CS(=O)(=O)N1CC[C@@H](Oc2ccc(-c3cccn4nc(NC(=O)C5CC5)cc34)cc2)C1 [Compound 49, (R)-N-(4-(4-(1-(methylsulfonyl)pyrrolidin-3-yloxy)phenyl)pyrazolo[1,5-a]pyridin-2-yl)cyclopropanecarboxamide]
10 | 0.01 to 100 nM | 0.01 to 100 nM | 101 to 500 nM | CC(=O)Nc1cc2c(-c3ccc(CN4CCN(CC(F)(F)F)CC4)c(F)c3)cccn2n1 [Compound 28, N-(4-(3-fluoro-4-((4-(2,2,2-trifluoroethyl)piperazin-1-yl)methyl)phenyl)pyrazolo[1,5-a]pyridin-2-yl)acetamide]
11 | 0.01 to 100 nM | 0.01 to 100 nM | 101 to 500 nM | CC(=O)Nc1cc2c(-c3ccc(CN4CCN(S(C)(=O)=O)CC4)c(F)c3)cccn2n1 [Compound 21]
12 | 0.01 to 100 nM | 0.01 to 100 nM | 0.01 to 100 nM | C[C@H](c1ccc(-c2cccn3nc(NC(=O)C4CC4)cc23)cc1)N1CCN(S(C)(=O)=O)CC1 [Compound 46, (R)-N-(4-(4-(1-(4-(methylsulfonyl)piperazin-1-yl)ethyl)phenyl)pyrazolo[1,5-a]pyridin-2-yl)cyclopropanecarboxamide]
13 | 0.01 to 100 nM | 501 to 1000 nM | 501 to 1000 nM | CC(=O)Nc1cc2c(-c3ccc(CN4CCN(S(C)(=O)=O)C[C@H]4C)cc3)cccn2n1 [Compound 24, (R)-N-(4-(4-((2-methyl-4-(methylsulfonyl)piperazin-1-yl)methyl)phenyl)pyrazolo[1,5-a]pyridin-2-yl)acetamide]
14 | 101 to 500 nM | 0.01 to 100 nM | 501 to 1000 nM | CC(=O)Nc1cc2c(-c3ccc(CC(=O)N4COCC4(C)C)cc3)cccn2n1 [Compound 38, N-(4-(4-(2-(4,4-dimethyloxazolidin-3-yl)-2-oxoethyl)phenyl)pyrazolo[1,5-a]pyridin-2-yl)acetamide]
15 | 101 to 500 nM | 0.01 to 100 nM | 0.01 to 100 nM | CC(=O)Nc1cc2c(-c3ccc(CC(=O)N4CCCCC4)cc3)cccn2n1 [Compound 35, N-(4-(4-(2-oxo-2-(piperidin-1-yl)ethyl)phenyl)pyrazolo[1,5-a]pyridin-2-yl)acetamide]
16 | 0.01 to 100 nM | 0.01 to 100 nM | 0.01 to 100 nM | C[C@@H]1CN(S(C)(=O)=O)CCN1Cc1ccc(-c2cccn3nc(NC(=O)C4CC4)cc23)cc1 [Compound 44, (R)-N-(4-(4-((2-methyl-4-(methylsulfonyl)piperazin-1-yl)methyl)phenyl)pyrazolo[1,5-a]pyridin-2-yl)cyclopropanecarboxamide]
17 | 0.01 to 100 nM | 0.01 to 100 nM | 101 to 500 nM | CC(=O)Nc1cc2c(-c3ccc(CC(=O)N4CC(F)(F)C4)cc3)cccn2n1 [Compound 34, N-(4-(4-(2-(3,3-difluoroazetidin-1-yl)-2-oxoethyl)phenyl)pyrazolo[1,5-a]pyridin-2-yl)acetamide]
